From patent US5698571A, “5-HT1F mediated inhibition of neurogenic meningeal extravasation: a method for the treatment of migraine” (Eli Lilly and Company, priority 1994, dated 1997)
pEC50: −log10 of the molar value. Counter-ions that a name gives are not always drawn. Like-named read-outs stand apart in the source and are kept apart here.

What was measured:
[1] = tested on: neuronal protein extravasation; assay: Protein extravasation assay (dura, stimulation of trigeminal ganglion); type: in vivo, guinea pig
rabbit saphenous vein = assay: Rabbit Saphenous Vein Contraction
5-HT1F = biological target: T1, 5-HT1F (Homo sapiens, UniProt P30939); assay: Radioligand binding ([3H]5-HT displacement), 5-HT1F
T1 construct: expressed in transfected cells; host or cells: Ltk- cells

[2] = Humphrey et al.; cited from earlier work
migraine = details: in vivo; cited from earlier work
neurogenic inflammation = details: dose similar to that required to treat acute migraine in humans; cited from earlier work
5-HT1F receptor [3] = details: Weinshank et al., WO93/14201; cited from earlier work
[4] = in vivo; cited from earlier work
5-HT1F receptor [5] = biological target: T2, 5-HT1F receptor (Homo sapiens, UniProt P30939); assay: Measurement of cAMP formation: inhibition of forskolin stimulated cAMP in NIH3 T3 cells transfected with the 5-HT1F receptor; type: cell-based; details: for agonist character at the 5-HT1F receptor in the cAMP assay: forskolin stimulated cAMP, transfected NIH3 T3 cells
T2 sequence (P30939 1-366): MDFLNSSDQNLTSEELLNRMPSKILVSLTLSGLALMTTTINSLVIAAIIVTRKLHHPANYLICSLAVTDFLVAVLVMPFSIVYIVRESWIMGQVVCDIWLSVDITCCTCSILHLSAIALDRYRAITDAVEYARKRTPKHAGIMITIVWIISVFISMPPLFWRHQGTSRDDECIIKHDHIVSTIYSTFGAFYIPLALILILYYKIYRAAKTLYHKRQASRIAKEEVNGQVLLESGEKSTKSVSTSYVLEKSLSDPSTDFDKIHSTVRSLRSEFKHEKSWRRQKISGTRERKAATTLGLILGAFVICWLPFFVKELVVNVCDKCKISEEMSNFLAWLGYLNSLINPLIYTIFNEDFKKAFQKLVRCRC

vasoconstriction = details: Goodman and Gilman; cited from earlier work
[6] = Cavia porcellus, iv, read-out: Inhibition of Protein Extravasation i.v. ID50
[7] = i.v., 10 minutes before trigeminal ganglion stimulation; dose inhibiting extravasation by 50%
[8] = Oryctolagus cuniculus, read-out: Corrected Vasoconstriction EC50
[9] = Oryctolagus cuniculus, read-out: Rabbit Saphenous Vein Contraction (% Max. KCl)
[10] = Oryctolagus cuniculus; read-out: Rabbit Saphenous Vein Contraction EC50

Q: For `CN(C)C1CCc2[nH]c3ccc(O)cc3c2C1` (centres unmarked) [Compound V, 6-hydroxy-3-dimethylamino-1,2,3,4-tetrahydrocarbazole], which ED50 [1, 6] is on record?
A: 8.7e-06 µmol/kg

Q: And the “Inhibition of Protein Extravasation i.v. ID50” value [1, 7]?
A: 8.7e-09 mmol/kg

Q: And the pEC50 (rabbit saphenous vein; [8])?
A: < 5.10

Q: And the Emax (rabbit saphenous vein; [9])?
A: 12.4%

Q: And the pEC50 (rabbit saphenous vein; Oryctolagus cuniculus, read-out: Rabbit Saphenous Vein Contraction EC50)?
A: < 4.00

Q: Which “5-HT1F activity (in words)” value (5-HT1F) does the source give for `CNS(=O)(=O)Cc1ccc2[nH]cc(CCN(C)C)c2c1.O=C(O)CCC(=O)O` [Compound I, 3-[2-(dimethylamino)ethyl]-N-methyl-1H-indole-5-methanesulfonamide butane-1,4-dioate (1:1)] here?
A: significant component of 5-HT1F activity

Q: And the ED50 [1, 6]?
A: 2.6e-05 µmol/kg

Q: And the “Inhibition of Protein Extravasation i.v. ID50” value ([1]; iv)?
A: 2.6e-08 mmol/kg

Q: And the pEC50 (rabbit saphenous vein; [8])?
A: 7.99

Q: What about the pEC50 (rabbit saphenous vein; [10]) of the same compound?
A: 6.18

Q: What about the “agonist at 5-HT1-like receptors, hydrophilicity” value [2] of the same compound?
A: hydrophilic agonist at 5-HT-1-like receptors

Q: What about the “crossing of the blood-brain barrier” value [2] of the same compound?
A: does not cross the blood-brain barrier

Q: What about the “efficacy in the treatment of migraine” value (migraine) of the same compound?
A: effective in the treatment of migraine

Q: And the “blockade of neurogenic inflammation” value (neurogenic inflammation)?
A: blocked

Q: And the “affinity for the 5-HT1F receptor” value (5-HT1F receptor [3])?
A: high affinity

Q: What about the “contraindications as products of vasoconstrictive activity” value [4] of the same compound?
A: coronary vasospasm, hypertension and angina

Q: With `CCN(CC)C1CCc2cccc(Cl)c2C1.Cl` (centres unmarked) [Compound IV, 8-chloro-2-diethylamino-1,2,3,4-tetrahydronaphthalene hydrochloride] as the compound, how does the “5-HT1F activity (in words)” value (5-HT1F) read?
A: significant component of 5-HT1F activity

Q: What about the ED50 [1, 6] of the same compound?
A: 0.00012 µmol/kg

Q: And the “Inhibition of Protein Extravasation i.v. ID50” value [1, 7]?
A: 1.2e-07 mmol/kg

Q: And the pEC50 (rabbit saphenous vein; [8])?
A: 8.83

Q: What about the Emax (rabbit saphenous vein; [9]) of the same compound?
A: 67.2%

Q: And the pEC50 (rabbit saphenous vein; [10])?
A: 6.00

Q: Which ED50 [1, 6] does the source give for `Oc1ccc2[nH]cc(C3CCNCC3)c2c1` [Compound III, 5-hydroxy-3-(4-piperidinyl)-1-H-indole oxalate] here?
A: 8.9e-06 µmol/kg

Q: With `Cn1cc(CCN2CCC(c3c[nH]c4ccc(F)cc34)CC2)cn1` [Compound II, 5-fluoro-3-<1-<2-<1-methyl-1H-pyrazol-4-yl >ethyl>-4-piperidinyl>-1H-indolehydrochloride] as the compound, how does the ED50 ([1]; Cavia porcellus, iv; read-out: Inhibition of Protein Extravasation i.v. ID50) read?
A: 8e-07 µmol/kg

Q: And the “Inhibition of Protein Extravasation i.v. ID50” value ([1]; guinea pig, in vivo, iv)?
A: 8e-10 mmol/kg

Q: And the pEC50 (rabbit saphenous vein; Oryctolagus cuniculus; read-out: Corrected Vasoconstriction EC50)?
A: 7.14

Q: And the Emax (rabbit saphenous vein; Oryctolagus cuniculus; read-out: Rabbit Saphenous Vein Contraction (% Max. KCl))?
A: 13.7%

Q: And the pEC50 (rabbit saphenous vein; [10])?
A: 6.00

Q: Which “agonist character at the 5-HT1F receptor in the cAMP assay” value (5-HT1F receptor [5]) does the source give for `NCCc1c[nH]c2ccc(O)cc12` [serotonin] here?
A: maximal effect

Q: What does the source list for `CN1C[C@H](C(=O)N[C@]2(C)O[C@@]3(O)[C@@H]4CCCN4C(=O)[C@H](Cc4ccccc4)N3C2=O)C[C@@H]2c3cccc4[nH]cc(c34)C[C@H]21` [Dihydroergotamine]?
A: agonist character at the 5-HT1F receptor in the cAMP assay (5-HT1F receptor [5]): partial agonist; cAMP assay Emax at the 5-HT1F receptor (5-HT1F receptor [5]; percent of maximal effect of serotonin, forskolin 10 μM): 49.5%; ED50 [1, 6]: 2.43e-05 µmol/kg; inhibition of neuronal protein extravasation (in words) ([1]; i.v.): fully effective inhibitor; ratio of extravasation in the dura, stimulated side compared to unstimulated side ([1]; i.v.; saline controls approximately 2.0 in rats, 1.8 in guinea pigs): 1.0; vasoconstrictor activity (vasoconstriction): potent vasoconstrictor
